Reference: patent EP4427746A1, “TREATMENT OF DEMENTIA USING BORTEZOMIB OR PARBENDAZOLE” (Bash Biotech Inc, priority 2023, dated 2024)
Like-named read-outs stand apart in the source and are kept apart here.

Assays:
[1] = system: glioblastoma cell line U138MG; test: Glutamate contents assay; assay type: cell-based; settings: U138MG cells after drug treatment, compared to cell viability, Figure 7
Excerpt: (§1) A microplate reader was used to measure absorbances.
Drug efficacy describes how the drug-protein interaction manipulates the normal action of the protein. Glutamate content was examined at differing drug concentrations with the glutamate assay kit to measure drug efficacies. Abcam protocol (ab83389) was followed to quantitate glutamate content. Here, the protocols were summarized.
To prepare samples, cells were harvested, washed with cold PBS, resuspended in an assay buffer, homogenised, incubated for 15 - 30 min on ice, and centrifuged for 2 - 5 minutes at 4°C at top speed using a cold microcentrifuge. The supernatant was collected and transferred to a clean tube, then distributed to well plates.
To quantitate free glutamate levels, the reaction mixture was added to each standard and sample well. The background reaction mix was added to the background sample wells. Wells were mixed and incubated at 37°C for 30 minutes protected from light. Colour change was measured at OD = 450 nm (blue). Glutamate concentration was calculated as formulated in the protocol, then divided by relative cytotoxicity by MTT assay to extrapolate drug efficacy.

[2] = system: glutaminase-1; test: Western blot for drug-induced glutaminase content; assay type: cell-based; settings: U138MG cells, Figure 8
Method: as §1
(§2) Drug-induced glutaminase content was measured by western. The cells were washed with PBS and lysed with CelLytic M (C2978, Sigma-Aldrich, Saint Louis, MO, USA) lysis buffer containing protease inhibitors. The lysates were centrifuged at 12,000 rotations per minute for 5 min, and the supernatant was collected. Proteins were separated by Mini-PROTEAN® TGXTM Precast Gels (BioRad, Berkeley, CA, USA) and transferred to a Trans-Blot Turbo Mini 0.2um PVDF Transfer Packs membrane (BioRad, Berkeley, CA, USA) by using Trans-Blot® TurboTM Transfer System (Bio-Rad, Berkeley, CA, USA). The antibodies for mitochondrial glutaminase-1 (kidney-type) and glutaminase-2 (liver-type) encoded from two GLS isomers and GAPDH were used for primary immunoblotting. All the antibodies were diluted at a 1:1000 concentration. DMSO was used as a blank reference. The membranes were incubated in primary antibody solution overnight at 4 °C with gentle rocking. The secondary antibody, goat Anti-Rabbit HRP (ab205718) or goat anti-mouse IgG-HRP (sc2005, Santa Cruz Biotechnology, Inc., Dallas, TX, USA), was blotted for 30 min at 4 °C with gentle rocking. The protein bands were detected with ImageQuant LAS 500 (29-0050-63)

[3] = system: glutaminase-2; test: Western blot for drug-induced glutaminase content; assay type: cell-based; settings: U138MG cells, Figure 8
Method: as §1, §2

[4] = system: glioblastoma cell line U138MG
Method: (§3) Before performing these assays, the optimum cell count per well was decided by comparing the optical density for L-glutamate (ab120049) absorbance between DMEM-0819 (with glutamine) and DMEM-5671 (without glutamine) culture media, which was tested by glutamate assay kit from Abcam (Abcam PLC, Cambridge, UK) at 450 nm following its protocol, then cultured 20000 cells per well in DMEM-0819 with L-alanyl-L glutamine, adherently, treated with drugs dissolved in DMSO separately. To prepare LDH assay high control samples, cell lysis solution was added instead of drugs. Samples were incubated in a humidified incubator (at 37 °C, 5% CO2). A microplate reader was used to measure absorbances.
(§4) Tetrazolium reduction assay (MTT assays) and lactate dehydrogenase release assays (LDH assays) were conducted to assess cell metabolic activity (cell proliferation) and to measure cytotoxicity (drug toxicity). Abcam protocols (MTT: ab211091, LDH: ab65293) were followed. Here, both protocols were summarized.
(§5) Before adding assay solutions on day 1 (24 hours) and day 2 (48 hours), the drug treatment media were aspirated from plates and transferred to well plates.
(§6) For the MTT assay, serum-free media and MTT Reagent were added to each well. Control samples were prepared without using cells but serum-free media and MTT reagent. […] The reduction of MTT by mitochondrial succinate dehydrogenase was measured by reading absorbance at OD = 590 nm (yellow to purple). Cytotoxicity (CT) was calculated as a ratio of measures of absorbance of control wells (AbsC) and absorbance of sample-containing wells (AbsS) as below: CT = 100∗((AbsC−AbsS))/(AbsC) [formula]
(§7) For the LDH release assay, LDH reaction mix was added to wells. […] The release of LDH from cells due to damaged plasma membrane was measured by reading absorbance at OD = 450 nm (blue). Cytotoxicity (CT) was calculated as a ratio of measures of absorbance of low control wells (AbsLC), high control wells (AbsHC) sample wells (AbsS) as below: CT = 100∗((AbsS−AbsLC))/((AbsHC−AbsLC)) [formula]

[5] = system: glioblastoma cell line U138MG; test: Drug toxicity: MTT assay and LDH release assay; settings: U138MG glial cells, MTT and LDH release assays, 24 and 48 hours, Figure 6
Method: as §3, §4, §5, §6, §7

SMILES	glutamate levels [1]	drug affinity for glutaminase-1 (relative band intensities) [2]	drug affinity for glutaminase-2 (relative band intensities) [3]	drug toxicity (metabolic activity and cytotoxicity) [4]	drug toxicity (metabolic activity and cytotoxicity) [5]
CC12CC3CC(C)(C1)CC(N)(C3)C2 [memantine]	highly decreased	significant drug affinity for glutaminase-1 could be measured for only comparably higher concentrations	significant and higher affinity	insignificant	–
CC(C)C[C@H](NC(=O)[C@H](Cc1ccccc1)NC(=O)c1cnccn1)B(O)O [bortezomib]	highly decreased	–	drastic	toxic for glial cells even at low concentrations	–
CCCCc1ccc2[nH]c(NC(=O)OC)nc2c1 [parbendazole]	highly decreased	significant drug affinity for glutaminase-1 could be measured for only comparably higher concentrations	drastic	–	toxic for glial cells even at low concentrations
